Experimental findings from patent US5250542A, “Peripherally selective piperidine carboxylate opioid antagonists” (Eli Lilly and Company, priority 1992, dated 1993) are described below.

Counter-ions that a name gives are not always drawn. Like-named read-outs stand apart in the source and are kept apart here.

For one test, the target named is T1, opioid receptor (Mus musculus, UniProt P42866).
T1 construct: Five CF-1 male mice (Charles River, Portage, Mich.); from tissue; host or cells: living CF-1 male mice (in vivo test; endogenous receptor)
Briefly: mouse writhing analgesis test: block of morphine-induced analgesia. The class given is in vivo, CF-1 male mice. Further details: unit not given here. The following applies: dose of antagonist that reduced the inhibition of writhing produced by 1.25 mg/kg morphine sulfate to 50%, subcutaneous, 20 min before acetic acid. An outline of the steps:
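Male CF-1 mice (~20 g, fasted overnight, n=5) dosed subcutaneously 20 min before i.p. 0.6% acetic acid; writhes counted for 10 min starting 5 min post-injection. Antagonism measured as blockade of morphine-induced inhibition of writhing, percent versus vehicle controls; ED50 defined as 50% writhing inhibition.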

For test [1], the target named is T2, peripheral opioid receptors (Mus musculus, UniProt P42866).
T2 construct: Mice maintained (6 mice/cage) on 0.01M saccharin water with 1 g/1 morphine sulfate; from tissue; host or cells: living morphine-maintained mice (in vivo test; endogenous receptor)
Briefly: precipitated diarrhea in morphine-maintained mice (peripheral opioid activity) and comparison with the writhing test. It is filed as in vivo. Further details: ED50 (diarrhea): unit not given beside the values. The following applies: for Ratio (AD50 mouse writhing test / ED50 mouse diarrhea test): higher ratio = greater relative antagonism of peripheral opioid receptors; for ED50: mouse, 0.5 h; for ED50 / ED50 (diarrhea): morphine-maintained mice, antagonist subcutaneous or oral, 30 min observation; for ED50 (diarrhea): 30 min. The method, boiled down: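 Morphine-dependent mice (1 g/l morphine sulfate in drinking water ≥10 days, withdrawn 45 min before dosing) received antagonist subcutaneously or orally, 5 mice/dose. Diarrhea (and jumping) were scored over 30 min and doses lowered to find the diarrhea threshold. Peripheral selectivity was taken as writhing AD50 divided by diarrhea ED50.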
In general terms: An intraperitoneal irritant provokes the stretching counted in writhing tests.

The target in another test is T3, mu receptor (Rattus norvegicus, UniProt P33535).
T3 construct: rat whole brain minus cerebellum for mu was homogenized; from tissue; host or cells: brain of male Sprague Dawley rats, whole brain minus cerebellum, homogenate fraction
In words: opioid receptor binding assay, [3H] NAL (tritiated naloxone), mu receptor. Set-up: species or system rat (Male Sprague Dawley), brain minus cerebellum. The following applies: for inhibition at 0.01 µM / inhibition at 0.1 µM: 20 min. The method, boiled down:
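Displacement of [3H]naloxone was measured on rat whole brain minus cerebellum membranes, preincubated 20 min and incubated 20 min at 37° C, with filtration separating bound ligand. Ki was derived from IC50 and ligand KD. Percent displacement was also recorded at 10 nM and 100 nM test compound.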

[2] abbreviates: 10 nM test compound, [3H] naloxone 0.5 nM, read-out: % displacement at 10 nM.
[3] abbreviates: 100 nM test compound, [3H] naloxone 0.5 nM, read-out: % displacement at 100 nM.
Setting [4] is: read-out: % displacement at 10 nM.
[5] abbreviates: read-out: % displacement at 10 nM, 10 nM test compound, [3H] naloxone 0.5 nM.
Where [6] appears, read: read-out: % displacement at 100 nM, 100 nM test compound, [3H] naloxone 0.5 nM.
Setting [7] is: read-out: % displacement at 100 nM.

T3 sequence (P33535 whole entry): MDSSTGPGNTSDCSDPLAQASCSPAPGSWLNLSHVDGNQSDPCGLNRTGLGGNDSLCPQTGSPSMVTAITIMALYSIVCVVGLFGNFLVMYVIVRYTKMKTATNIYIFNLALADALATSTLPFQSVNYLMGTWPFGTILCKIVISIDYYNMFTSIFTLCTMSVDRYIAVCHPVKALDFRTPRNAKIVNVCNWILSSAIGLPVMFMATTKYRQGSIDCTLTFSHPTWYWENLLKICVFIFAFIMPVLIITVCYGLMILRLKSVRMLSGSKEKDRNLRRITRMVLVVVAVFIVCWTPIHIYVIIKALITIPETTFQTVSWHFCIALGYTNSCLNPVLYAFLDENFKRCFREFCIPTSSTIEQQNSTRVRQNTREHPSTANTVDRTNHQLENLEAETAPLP
T2 sequence (P42866 whole entry): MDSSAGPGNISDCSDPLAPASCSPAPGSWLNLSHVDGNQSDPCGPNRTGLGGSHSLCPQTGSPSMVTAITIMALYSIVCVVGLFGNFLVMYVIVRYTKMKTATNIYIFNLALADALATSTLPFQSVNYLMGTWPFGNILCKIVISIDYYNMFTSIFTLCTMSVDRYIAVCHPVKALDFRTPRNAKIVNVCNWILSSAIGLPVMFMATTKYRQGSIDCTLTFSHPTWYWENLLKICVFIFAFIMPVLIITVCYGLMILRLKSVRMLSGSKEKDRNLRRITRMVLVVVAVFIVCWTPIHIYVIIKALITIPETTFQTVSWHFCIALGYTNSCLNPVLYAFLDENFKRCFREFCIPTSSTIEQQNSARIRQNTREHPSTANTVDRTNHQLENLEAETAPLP
T1 sequence (P42866 whole entry): as above

Broadly, the ED50 is the midpoint of the dose-response relation. `CCOC(=O)C(Cc1ccccc1)CN1CC[C@@](C)(c2cccc(OC)c2)[C@@H](C)C1` (single isomer, unassigned) [Example 78B]: on opioid receptor, the AD50 is reported as 1.6. Also, in test [1], the “Ratio (AD50 mouse writhing test / ED50 mouse diarrhea test)” value came out at 29 and the 50% effect level (ED50) was put at a dose of 0.055 mg/kg. Besides, the inhibition at 0.01 µM at mu receptor (setting [2]) is 0%. On mu receptor (setting [3]), the inhibition at 0.1 µM turned out to be 2%.

The molecule `COc1cccc([C@]2(C)CCN(CC(Cc3ccccc3)C(=O)O)C[C@@H]2C)c1` (single isomer, unassigned) [Example 79] had an AD50 on opioid receptor of 1.7. Also, in test [1], the “Ratio (AD50 mouse writhing test / ED50 mouse diarrhea test)” value was 13 and the ED50 was determined as 0.13 mg/kg. Besides, on mu receptor (setting [2]), the inhibition at 0.01 µM is 0%. Further, at mu receptor (setting [3]), the inhibition at 0.1 µM stood at 15%.

For the molecule `CNC(=O)C(Cc1ccccc1)CN1CC[C@@](C)(c2cccc(OC)c2)[C@@H](C)C1` (single isomer, unassigned) [Example 80], the AD50 on opioid receptor is 3.9. Also, in test [1], the “Ratio (AD50 mouse writhing test / ED50 mouse diarrhea test)” value stood at 24 and the 50% effective dose (ED50) worked out at 0.16 mg/kg. Moreover, the inhibition at 0.01 µM on mu receptor (setting [2]) amounted to 0%. Also, the inhibition at 0.1 µM on mu receptor (setting [3]) is 37%.

Take `CCOC(=O)CNC(=O)C(Cc1ccccc1)CN1CC[C@@](C)(c2cccc(OC)c2)[C@@H](C)C1` (single isomer, unassigned) [Example 81]: the AD50 at opioid receptor is 13.2. Besides, in test [1], the “Ratio (AD50 mouse writhing test / ED50 mouse diarrhea test)” value was 4 and it took a dose of 3.28 mg/kg to reach the 50% effect level (ED50). Moreover, on mu receptor (setting [2]), the inhibition at 0.01 µM was 21%. Besides, at mu receptor (setting [3]), the inhibition at 0.1 µM stood at 55%.

Consider `CNC(=O)CNC(=O)C(Cc1ccccc1)CN1CC[C@@](C)(c2cccc(OC)c2)[C@@H](C)C1` (single isomer, unassigned) [Example 82], for which the AD50 result at opioid receptor is on record as “.95”. In addition, in test [1], the “Ratio (AD50 mouse writhing test / ED50 mouse diarrhea test)” value came to 17 and the ED50 amounted to 0.055 mg/kg. For the same molecule, the inhibition at 0.01 µM at mu receptor (setting [2]) was determined as 31%. In addition, on mu receptor (setting [3]), the inhibition at 0.1 µM came out at 73%.

At opioid receptor, `CCNC(=O)CNC(=O)C(Cc1ccccc1)CN1CC[C@@](C)(c2cccc(OC)c2)[C@@H](C)C1` (single isomer, unassigned) [Example 83] gave an AD50 of 0.71. Also, in test [1], the “Ratio (AD50 mouse writhing test / ED50 mouse diarrhea test)” value came out at 2 and the ED50 amounted to 0.04 mg/kg. The inhibition at 0.01 µM on mu receptor (setting [2]) was 52%. In addition, the inhibition at 0.1 µM on mu receptor (setting [3]) turned out to be 83%.

Consider `CC(C)COC(=O)CNC(=O)C(Cc1ccccc1)CN1CC[C@](C)(c2cccc(O)c2)[C@H](C)C1` (single isomer, unassigned) [Example 98D], for which the AD50 on opioid receptor (listed as 98D**, 1.25 mg/kg) was determined as 15.3; at opioid receptor (listed as 98D*, 1.25 mg/kg), 2.9. The “Ratio (AD50 mouse writhing test / ED50 mouse diarrhea test)” value in test [1] (listed as 98D*) was 4; in test [1] (listed as 98D**), 255. Further, the results for the “ED50 (diarrhea)” value in test [1] (listed as 98D**) and in test [1] (listed as 98D*) were 0.06 and 0.76, respectively. The “% displacement at 100 nM” value on mu receptor was 96%. Further, the inhibition at 0.01 µM amounted to 80% at mu receptor (setting [4]) and 57% on mu receptor (setting [5]). For the same molecule, on mu receptor (setting [6]), the inhibition at 0.1 µM worked out at 92%.

Take `C[C@@H]1CN(CC(Cc2ccccc2)C(=O)NCC(=O)O)CC[C@]1(C)c1cccc(O)c1` (single isomer, unassigned) [Example 98E]: the AD50 at opioid receptor came out at 6.2. In addition, in test [1], the “Ratio (AD50 mouse writhing test / ED50 mouse diarrhea test)” value worked out at 62 and the 50% effective dose (ED50) was determined as 0.1 mg/kg. At mu receptor (setting [4]), the inhibition at 0.01 µM is 69%. On mu receptor (setting [7]), the inhibition at 0.1 µM was determined as 87%.

The molecule `C[C@H]1CN(CC(Cc2ccccc2)C(=O)NCC(=O)O)CC[C@@]1(C)c1cccc(O)c1` (single isomer, unassigned; (+)) [Example 97E, monohydrate] gave an AD50 on opioid receptor of 8.9. Besides, in test [1], the “Ratio (AD50 mouse writhing test / ED50 mouse diarrhea test)” value is 127 and it took a dose of 0.07 mg/kg to reach the 50% effect level (ED50). Moreover, at mu receptor (setting [4]), the inhibition at 0.01 µM amounted to 80%. In addition, on mu receptor (setting [7]), the inhibition at 0.1 µM was determined as 90%.

In general, Ki refers to the dissociation constant of the complex between target and ligand, obtained from inhibition or displacement. Turning to `C[C@H]1CN(CC(CC2CCCCC2)C(=O)NCCC(=O)O)CC[C@@]1(C)c1cccc(O)c1` (some centres unmarked) [Example 35, 3-[[3-[4-(3-hydroxyphenyl)-3,4-dimethyl-1-piperidinyl]-2-(cyclohexylmethyl)-1-oxopropyl]-amino]propanoic acid hydrochloride], the AD50 at opioid receptor was 40. Further, in test [1], the “Ratio (AD50 mouse writhing test / ED50 mouse diarrhea test)” value was found to be 667 and the ED50 was found to be 0.06 mg/kg. The molecule also yielded a Ki on mu receptor of 540 pM. The inhibition at 0.01 µM at mu receptor (setting [5]) came out at 98%. Moreover, on mu receptor (setting [6]), the inhibition at 0.1 µM worked out at 100%.

Take `CCOC(=O)CCNC(=O)C(CC1CCCCC1)CN1CC[C@@](C)(c2cccc(O)c2)[C@@H](C)C1` (some centres unmarked) [Example 36, 3-[[2-(cyclohexylmethyl)-3-[4-(3-hydroxyphenyl)-3,4-dimethyl-1-piperidinyl]-1-oxo-propyl]amino]propanoic acid ethyl ester monohydrochloride]: the AD50 at opioid receptor is recorded as 3.8. Further, in test [1], the “Ratio (AD50 mouse writhing test / ED50 mouse diarrhea test)” value amounted to 12 and the ED50 is 0.32 mg/kg. This molecule also showed an inhibitory constant (Ki) at mu receptor of 470 pM. The inhibition at 0.01 µM on mu receptor (setting [5]) turned out to be 79%. The inhibition at 0.1 µM on mu receptor (setting [6]) turned out to be 86%.

Regarding `CCNC(=O)CCNC(=O)C(CC1CCCCC1)CN1CC[C@@](C)(c2cccc(O)c2)[C@@H](C)C1` (some centres unmarked) [Example 37, monohydrochloride], on opioid receptor, the AD50 is on record as 3.9. In test [1], the “Ratio (AD50 mouse writhing test / ED50 mouse diarrhea test)” value is on record as 43 and it took a dose of 0.09 mg/kg to reach the 50% effect level (ED50). The molecule further showed a Ki at mu receptor of 1090 pM. The inhibition at 0.01 µM on mu receptor (setting [5]) stood at 93%. Besides, the inhibition at 0.1 µM on mu receptor (setting [7]) is 97%.

Molecule `C[C@H]1CN(CC(CC2CCCCC2)C(=O)NCCC(N)=O)CC[C@@]1(C)c1cccc(O)c1` (some centres unmarked) [Example 38, 3-[[1-oxo-2-cyclohexylmethyl)-3-[4-(3-hydroxyphenyl)-3,4-dimethyl-1-piperidinyl]propyl]-amino]propanamide hydrochloride] returned an AD50 at opioid receptor greater than 40. Moreover, in test [1], the “Ratio (AD50 mouse writhing test / ED50 mouse diarrhea test)” value is on record as greater than 667 and the 50% effect level (ED50) was put at a dose of 0.06 mg/kg. This molecule returned an inhibitory constant (Ki) on mu receptor of 480 pM. For the same molecule, on mu receptor (setting [5]), the inhibition at 0.01 µM worked out at 98%. Besides, on mu receptor (setting [6]), the inhibition at 0.1 µM was found to be 99%.

On opioid receptor, `CCOC(=O)CCCNC(=O)C(CC1CCCCC1)CN1CC[C@@](C)(c2cccc(O)c2)[C@@H](C)C1` (some centres unmarked) [Example 39, 4-[[3-[3,4-dimethyl-4-(3-hydroxyphenyl)-1-piperidinyl]-2-(cyclohexhymethyl)-1-oxopropyl]-amino]butanoic acid ethyl ester monohydrochloride] registered an AD50 of 11.9. Further, in test [1], the “Ratio (AD50 mouse writhing test / ED50 mouse diarrhea test)” value was determined as 18 and the ED50 turned out to be 0.66 mg/kg. This molecule also gave an inhibitory constant (Ki) at mu receptor of 3750 pM. Also, the inhibition at 0.01 µM on mu receptor (setting [5]) amounted to 91%. For the same molecule, the inhibition at 0.1 µM on mu receptor (setting [7]) was determined as 98%.

In turn, `C[C@H]1CN(CC(CC2CCCCC2)C(=O)NCCCC(N)=O)CC[C@@]1(C)c1cccc(O)c1` (some centres unmarked) [Example 40, 4-[[1-oxo-2-(cyclohexylmethyl)-3-[4-(3-hydroxyphenyl)-3,4-dimethyl-1-piperidinyl]propyl]-amino]butanamide hydrochloride] returned an AD50 on opioid receptor of 4.5. In test [1], the “Ratio (AD50 mouse writhing test / ED50 mouse diarrhea test)” value was determined as 3.5 and the ED50 is 1.3 mg/kg. Moreover, on mu receptor, the Ki is 750 pM. On mu receptor (setting [5]), the inhibition at 0.01 µM stood at 95%. Besides, the inhibition at 0.1 µM on mu receptor (setting [6]) came out at 100%.
